Source: patent US20190070170A1, “METHOD OF S[…]-1” (Macau University of Science and Technology, priority 2017, published 2019)

Tests used:
[1] = previous studies (Evans 1994; Werner et al. 1992); cited from earlier work
[2] = tested on: collagen-induced arthritis; test: Collagen-II induced arthritis (CIA) in DBA/1 mice; format: in vivo; conditions: CIA DBA/1 mice; MTX 10 mg/kg/week p.o.
Method: Female DBA/1 mice (8-9 weeks old) were purchased from Shanghai SiLaike (SLAC) Laboratory Animal Company (Shanghai, China) and fed with a chow diet and water at room temperature. Equal volume of complete Freuend's adjuvant (CFA) and Bovine Type II Collagen (CII) were mixed and emulsified using a homogenizer (13,000 rpm) on ice. On day 0, DBA/1 mice were immunized by injecting 50 μl of CII in CFA in the tail, approximately 2 cm from the base of the tail. After injection, on day 18, mice with one or more than one paw inflamed were chosen and randomly divided into model group, SIN (100 mg/kg, i.p.) treatment group and MTX (10 mg/kg/week, p.o) treatment group, the mice without immunization were used as normal control. On day 21, these chosen mice were boosted through injecting the same volume of CII in IFA same as the day 0 immunization procedure. The incidence of joint swelling in each group was recorded every two days since drug treatment. Paw thickness (at the ankle joints of the hind paws) of each mouse was obtained by using vernier caliper to record the severity of paw swelling.
Arthritis score of each paw was evaluated every two days during experiment with the following criteria: • 0: no evidence of erythema and swelling; • 1: erythema and mild swelling confirmed to the tarsals or ankle joint; • 2: erythema and mild swelling extending from the ankle to the tarsal joints; • 3: erythema and moderate swelling extending from the ankle to metatarsal joints; and • 4: erythema and severe swelling encompass the ankle, foot and digits, or ankylosis of the limb.
The score of each paw was summed for a score of 0-16 for each mouse. Mice were then sacrificed and hind paws were removed and freshly frozen in liquid nitrogen and stored at −80° C. until used.

mPGES-1 = mPGES-1 protein expression in hind paws of CIA DBA/1 mice; format: in vivo; conditions: SIN 100 mg/kg i.p. or MTX 10 mg/kg/week p.o.
Method: Female DBA/1 mice (8-9 weeks old) were purchased from Shanghai SiLaike (SLAC) Laboratory Animal Company (Shanghai, China) and fed with a chow diet and water at room temperature. Equal volume of complete Freuend's adjuvant (CFA) and Bovine Type II Collagen (CII) were mixed and emulsified using a homogenizer (13,000 rpm) on ice. On day 0, DBA/1 mice were immunized by injecting 50 μl of CII in CFA in the tail, approximately 2 cm from the base of the tail. […] The incidence of joint swelling in each group was recorded every two days since drug treatment. […]
Frozen paws were pulverized in liquid nitrogen using a stainless steel mortar and pestle, then re-suspended in 8 volumes of ice-cold PBS from Invitrogen (San Diego, Calif., USA) with 2.6 mM DTT from Promega (Madison, Wis., USA) and 2×Complete Protease Inhibitor mixture from Roche (Mannheim, Germany), and homogenized on ice bath using a tissue homogenizer from T25 digital, IKA (Stanfen, Germany) at 10,000 rpm/min for 5 min. […] The protein concentrations were measured using a Bio-Rad protein assay kit (Hercules, Calif., USA). […]
Whole-cell and nuclear proteins were obtained using RIPA lysis buffer (CST, Boston, Mass., USA) and Nuclear and Cytoplasmic Extraction Reagents kit from Thermo Scientific (Asheville, N.C., USA), respectively. […] The levels of protein expression were measured using Odyssey v3.0 software from Li-COR (Lincoln, Nebr., USA).

C[C@@H]1C[C@H]2[C@@H]3CCC4=CC(=O)C=C[C@]4(C)[C@@]3(F)[C@@H](O)C[C@]2(C)[C@@]1(O)C(=O)CO [DEX, Dexamethasone]
cardiac side effects [1]: faster heart rates, transient absolute myocardial hypertrophy and increase in systemic blood pressure

CN(Cc1cnc2nc(N)nc(N)c2n1)c1ccc(C(=O)N[C@@H](CCC(=O)O)C(=O)O)cc1 [MTX, methotrexate, reference compound]
arthritis in CIA mice [2]: no observable effects | mPGES-1 protein expression in inflamed hind paws (mPGES-1): no observable effects
